Assay results: patent publication US12692238B2, “Substituted pyridazinone herbicides” (FMC CORPORATION, priority 2020, dated 2026)

Columns and labels:
Assay type in all cases: in vivo
[1] = tested on: barnyardgrass (Echinochloa crus-galli); test: Test A preemergence, barnyardgrass; details: 10 days
How it was run: (§1)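 Test chemicals, formulated in a non-phytotoxic solvent mixture with surfactant, are applied either as a directed preemergence soil spray or postemergence to seedlings at the one- to two-leaf stage. Injury is scored visually after 10 days, 0 = no effect to 100 = complete control.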

[2] = tested on: barnyardgrass (Echinochloa crus-galli); test: Test A postemergence, barnyardgrass; details: Postemergence, 0 to 100 scale, 10 days
How it was run: as §1

kochia (Bassia scoparia) [3] = test: Test A postemergence, kochia; details: Bassia scoparia, post-emergence, 240 h, 10 days, read-out: Plant response rating, Kochia; for pest or weed control at 31 g/ha: 31 g ai/ha, postemergence, 0 to 100 scale (0 no effect, 100 complete control); for pest or weed control at 125 g/ha: Postemergence, 125 g ai/ha, 0 to 100 scale
How it was run: as §1

[4] = tested on: barnyardgrass (Echinochloa crus-galli); test: Test B flooded paddy test, barnyardgrass; details: Echinochloa crus-galli; 250 g ai/ha, Flood; visually evaluated after 10 to 14 days; read-out: Plant response rating, Barnyardgrass (0 to 100 scale where 0 is no effect and 100 is complete control)
How it was run: (§2)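 Plants grown to the 2-leaf stage were flooded to 3 cm above the soil, and test compounds were applied directly into the paddy water, which was held at that depth throughout. After 10 to 14 days in a greenhouse, injury was visually rated against controls on a 0–100 scale (0 no effect, 100 complete control).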

rice (Oryza sativa) = test: Test B flooded paddy test, rice; details: Oryza sativa; 250 g ai/ha, Flood; visually evaluated after 10 to 14 days; read-out: Plant response rating, Rice (0 to 100 scale where 0 is no effect and 100 is complete control)
How it was run: as §2

[5] = tested on: ragweed (common ragweed, Ambrosia artemisiifolia); test: Test A preemergence, ragweed; details: Ambrosia artemisiifolia, pre-emergence, 240 h, 0 to 100 scale, 10 days, read-out: Plant response rating, Ragweed; for pest or weed control at 31 g/ha: 31 g ai/ha; for pest or weed control at 125 g/ha: 125 g ai/ha
How it was run: as §1

[6] = tested on: ryegrass, Italian (Italian ryegrass, Lolium multiflorum); test: Test A preemergence, ryegrass, Italian; details: Lolium multiflorum, pre-emergence, 240 h, 0 to 100 scale, 10 days, read-out: Plant response rating, Ryegrass, Italian; for pest or weed control at 31 g/ha: 31 g ai/ha; for pest or weed control at 125 g/ha: 125 g ai/ha
How it was run: as §1

[7] = tested on: foxtail, giant (giant foxtail, Setaria faberi); test: Test A preemergence, foxtail, giant; details: Setaria faberi, pre-emergence, 240 h, 0 to 100 scale, 10 days, read-out: Plant response rating, Foxtail, Giant; for pest or weed control at 31 g/ha: 31 g ai/ha; for pest or weed control at 125 g/ha: 125 g ai/ha
How it was run: as §1

[8] = tested on: galium (catchweed bedstraw, Galium aparine); test: Test A postemergence, galium; details: Galium, post-emergence, 240 h, 10 days, read-out: Plant response rating, Galium; for pest or weed control at 31 g/ha: 31 g ai/ha, postemergence, 0 to 100 scale (0 no effect, 100 complete control); for pest or weed control at 125 g/ha: Postemergence, 125 g ai/ha, 0 to 100 scale
How it was run: as §1

kochia (Bassia scoparia) [9] = test: Test A preemergence, kochia; details: Bassia scoparia, pre-emergence, 240 h, 0 to 100 scale, 10 days, read-out: Plant response rating, Kochia; for pest or weed control at 31 g/ha: 31 g ai/ha; for pest or weed control at 125 g/ha: 125 g ai/ha
How it was run: as §1

[10] = tested on: redroot pigweed (Amaranthus retroflexus); test: Test A preemergence, redroot pigweed; details: 0 to 100 scale, 10 days
How it was run: as §1

[11] = tested on: redroot pigweed (Amaranthus retroflexus); test: Test A postemergence, redroot pigweed; details: 10 days
How it was run: as §1

[12] = tested on: wheat (Triticum aestivum); test: Test A postemergence, wheat; details: Triticum aestivum, post-emergence, 240 h, 10 days, read-out: Plant response rating, Wheat; for plant injury at 31 g/ha: 31 g ai/ha, postemergence, 0 to 100 scale (0 no effect, 100 complete control); for plant injury at 125 g/ha: Postemergence, 125 g ai/ha, 0 to 100 scale
How it was run: as §1

[13] = tested on: foxtail, giant (giant foxtail, Setaria faberi); test: Test A postemergence, foxtail, giant; details: Setaria faberi, post-emergence, 240 h, Postemergence, 0 to 100 scale, 10 days, read-out: Plant response rating, Foxtail, Giant; for pest or weed control at 31 g/ha: 31 g ai/ha; for pest or weed control at 125 g/ha: 125 g ai/ha
How it was run: as §1

[14] = tested on: ducksalad (Heteranthera limosa); test: Test B flooded paddy test, ducksalad; details: Heteranthera limosa; 250 g ai/ha, Flood; visually evaluated after 10 to 14 days; read-out: Plant response rating, Ducksalad (0 to 100 scale where 0 is no effect and 100 is complete control)
How it was run: as §2

[15] = tested on: ryegrass, Italian (Italian ryegrass, Lolium multiflorum); test: Test A postemergence, ryegrass, Italian; details: Lolium multiflorum, post-emergence, 240 h, 10 days, read-out: Plant response rating, Ryegrass, Italian; for pest or weed control at 31 g/ha: 31 g ai/ha, postemergence, 0 to 100 scale (0 no effect, 100 complete control); for pest or weed control at 125 g/ha: Postemergence, 125 g ai/ha, 0 to 100 scale
How it was run: as §1

[16] = 125 g ai/ha, 0 to 100 scale (0 no effect, 100 complete control)
[17] = 31 g ai/ha, postemergence, 0 to 100 scale (0 no effect, 100 complete control)
[18] = Postemergence, 125 g ai/ha, 0 to 100 scale

| Compound | Plant response rating, Barnyardgrass ([1]; 31 g ai/ha, 0 to 100 scale) | Plant response rating, Barnyardgrass [1, 16] | Plant response rating, Barnyardgrass ([2]; 31 g ai/ha) | Plant response rating, Barnyardgrass ([2]; 125 g ai/ha) | pest or weed control at 31 g/ha (kochia (Bassia scoparia) [3]) [%] | pest or weed control at 125 g/ha (kochia (Bassia scoparia) [3]) [%] | pest or weed control at 250 g/ha [4] [%] | plant injury at 250 g/ha (rice (Oryza sativa)) [%] | pest or weed control at 31 g/ha [5] [%] | pest or weed control at 125 g/ha [5] [%] | pest or weed control at 31 g/ha [6] [%] | pest or weed control at 125 g/ha [6] [%] | pest or weed control at 31 g/ha [7] [%] | pest or weed control at 125 g/ha [7] [%] | pest or weed control at 31 g/ha [8] [%] | pest or weed control at 125 g/ha [8] [%] | pest or weed control at 31 g/ha (kochia (Bassia scoparia) [9]) [%] | pest or weed control at 125 g/ha (kochia (Bassia scoparia) [9]) [%] | Plant response rating, Pigweed, Redroot ([10]; 31 g ai/ha) | Plant response rating, Pigweed, Redroot ([10]; 125 g ai/ha) | other results |
| --- | --- | --- | --- | --- | --- | --- | --- | --- | --- | --- | --- | --- | --- | --- | --- | --- | --- | --- | --- | --- | --- |
| CC(=O)OCOc1c(C)nn(C)c(=O)c1-c1c(Br)sc2ccc(F)cc12 [Compound 2, 5-[(acetyloxy)methoxy]-4-(2-bromo-5-fluorobenzo[b]thien-3-yl)-2,6-dimethyl-3(2H)-pyridazinone] | 0 | 0 | 50 | 60 | 70 | 80 | 0 | 0 | 70 | 90 | 70 | 100 | 30 | 60 | 90 | 100 | 20 | 50 | 90 | 100 | Plant response rating, Pigweed, Redroot [11, 17]: 80; Plant response rating, Pigweed, Redroot [11, 18]: 90; plant injury at 31 g/ha [12]: 0%; plant injury at 125 g/ha [12]: 40%; pest or weed control at 31 g/ha [13]: 50%; pest or weed control at 125 g/ha [13]: 90%; pest or weed control at 250 g/ha [14]: 20%; pest or weed control at 31 g/ha [15]: 80%; pest or weed control at 125 g/ha [15]: 100% |
| CC(=O)OCOc1c(Cl)nn(C)c(=O)c1-c1c(C)ccc2ccc(C)cc12 [Compound 3, 5-[(Acetyloxy)methoxy]-6-chloro-4-(2,7-dimethyl-1-naphthalenyl)-2-methyl-3(2H)-pyridazinone] | 60 | 100 | 60 | 90 | 60 | 80 | 98 | 0 | 90 | 90 | 20 | 100 | 10 | 100 | 100 | 100 | 10 | 90 | 100 | 100 | Plant response rating, Pigweed, Redroot [11, 17]: 100; Plant response rating, Pigweed, Redroot [11, 18]: 100; plant injury at 31 g/ha [12]: 0%; plant injury at 125 g/ha [12]: 20%; pest or weed control at 31 g/ha [13]: 80%; pest or weed control at 125 g/ha [13]: 90%; pest or weed control at 250 g/ha [14]: 95%; pest or weed control at 31 g/ha [15]: 80%; pest or weed control at 125 g/ha [15]: 100% |
| CC(=O)OCOc1c(Cl)nn(C)c(=O)c1-c1c2ccccc2cc2ccccc12 [Compound 10, 5-[(acetyloxy)methoxy]-4-(9-anthracenyl)-6-chloro-2-methyl-3(2H)-pyridazinone] | 0 | 0 | 20 | 10 | 0 | 10 | 15 | 0 | 40 | 40 | 0 | 10 | 0 | 20 | 90 | 100 | 0 | 0 | 100 | 100 | Plant response rating, Pigweed, Redroot [11, 17]: 100; Plant response rating, Pigweed, Redroot [11, 18]: 100; plant injury at 31 g/ha [12]: 0%; plant injury at 125 g/ha [12]: 0%; pest or weed control at 31 g/ha [13]: 10%; pest or weed control at 125 g/ha [13]: 50%; pest or weed control at 250 g/ha [14]: 95%; pest or weed control at 31 g/ha [15]: 0%; pest or weed control at 125 g/ha [15]: 0% |
